Reference: patent publication US20050234111A1, “D-homo-17-chlor-16(17)-ene steroids” (priority 2004, published 2005)

These compounds were tested against T1, androgen receptor (Rattus norvegicus, UniProt P15207) (assay: Measurement of the androgen receptor binding affinity (competitive binding with 3H-Metribolone tracer in prostate cytosol)). Conditions: prostate cytosol of the castrated rat; tracer 3H-Metribolone; reference substance DHT = 100%; 0-4° C., 18 hours.
T1 construct: on receptors in cystosol from animal target organs; from tissue; host or cells: prostate cytosol of castrated rat
T1 sequence (P15207 1-902): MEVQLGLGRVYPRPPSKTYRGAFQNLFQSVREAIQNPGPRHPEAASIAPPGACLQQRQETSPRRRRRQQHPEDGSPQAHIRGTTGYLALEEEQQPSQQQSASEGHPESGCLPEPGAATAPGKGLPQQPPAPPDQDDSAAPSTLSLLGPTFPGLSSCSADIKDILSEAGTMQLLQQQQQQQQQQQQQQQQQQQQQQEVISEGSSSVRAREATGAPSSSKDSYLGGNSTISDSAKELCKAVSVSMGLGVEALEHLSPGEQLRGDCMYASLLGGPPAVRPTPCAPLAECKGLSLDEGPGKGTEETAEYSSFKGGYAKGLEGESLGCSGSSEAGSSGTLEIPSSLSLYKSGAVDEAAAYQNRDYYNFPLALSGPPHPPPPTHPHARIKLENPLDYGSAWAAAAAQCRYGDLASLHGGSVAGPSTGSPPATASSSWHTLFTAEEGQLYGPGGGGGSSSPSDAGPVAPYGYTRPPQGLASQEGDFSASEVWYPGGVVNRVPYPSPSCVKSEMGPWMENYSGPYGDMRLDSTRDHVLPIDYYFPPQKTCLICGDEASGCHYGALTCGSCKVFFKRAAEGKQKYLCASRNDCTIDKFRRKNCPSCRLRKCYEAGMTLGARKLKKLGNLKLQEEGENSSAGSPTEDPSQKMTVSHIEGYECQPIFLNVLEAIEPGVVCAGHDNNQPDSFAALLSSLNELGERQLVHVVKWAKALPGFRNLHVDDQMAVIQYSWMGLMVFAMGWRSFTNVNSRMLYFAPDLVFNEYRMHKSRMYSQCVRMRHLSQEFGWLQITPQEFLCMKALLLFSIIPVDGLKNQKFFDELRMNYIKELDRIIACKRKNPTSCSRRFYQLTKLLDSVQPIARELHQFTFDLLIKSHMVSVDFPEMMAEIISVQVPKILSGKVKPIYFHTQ
Experimental: Measurement of the androgen receptor binding affinity:
The receptor binding affinity was determined by competitive binding of a specifically binding 3H-labeled hormone (tracer) and the compound to be tested on receptors in cystosol from animal target organs. In this case, receptor saturation and reaction equilibrium were desired.
The tracer and increasing concentrations of the compound to be tested (competitor) were co-incubated at 0-4° C. over 18 hours with the receptor-containing cytosol fraction. After separation of the unbonded tracer with carbon-dextran suspension, the receptor-bonded tracer portion was measured for each concentration and the IC50 was determined from the concentration series.
The following incubation conditions were selected:
Prostate cytosol of the castrated rat; prostates stored at −30° C.;

| Compound | RBA % (relative molar binding affinity) [%] |
| --- | --- |
| CC1CC2=CC(=O)CCC2(C)C2CCC3(C)C(O)C(Cl)=CCC3C12 (stereo not drawn) [Compound 2, 17-Chloro-17aβ-hydroxy-7α-methyl-17a-homoandrosta-4,16-dien-3-one] | 46 |
| C[C@]12CC[C@H]3[C@@H](CCC4=C(C(F)(F)F)C(=O)CC[C@@]43C)[C@@H]1CC=C(Cl)[C@@H]2O [Compound 9, 17-Chloro-17aβ-hydroxy-4-trifluoromethyl-17a-homoandrosta-4,16-dien-3-one] | 51 |
| C[C@]12CC[C@H]3[C@@H](CCC4=CC(=O)CC[C@@H]43)[C@@H]1CC=C(Cl)[C@@H]2O [Compound 17, 17-Chloro-17aβ-hydroxy-17a-homo-estra-4,16-dien-3-one] | 80 |
| CC1CC2=CC(=O)CCC2C2CCC3(C)C(O)C(Cl)=CCC3C12 (stereo not drawn) [Compound 18, 17-Chloro-17aβ-hydroxy-7α-methyl-17a-homo-estra-4,16-dien-3-one] | 105 |
| CC12CCC3C4CCC(=O)C(O)=C4CCC3C1CC=C(Cl)C2O (centres unmarked) [Compound 21, 17-Chloro-4,17aβ-dihydroxy-17a-homo-estra-4,16-dien-3-one] | 70 |
